Assay results taken from patent publication US7994334B2, “Fungicide pyridinyloxy substituted phenylamidine derivatives” (Bayer Cropscience AG, priority 2005, dated 2011).

assay: logP by HPLC on reversed-phase column (C 18), EEC Directive 79/831 Annex V.A8; format: physicochemical; conditions: C 18, 40° C., 0.1% aqueous formic acid and acetonitrile
Description: Temperature: 40° C.; Mobile phases: 0.1% aqueous formic acid and acetonitrile; linear gradient from 10% acetonitrile to 90% acetonitrile.

Structure (SMILES) | logPa
CCN(C)C=Nc1ccc(Oc2ncc(C(F)(F)F)cc2Cl)cc1C [Example 2] | 2.21
CCN(C)C=Nc1ccc(Oc2cc(Cl)ccn2)cc1C [Example 3] | 1.50
CCN(C)C=Nc1ccc(Oc2cc(C(F)(F)F)cc(Cl)n2)cc1C [Example 4] | 2.20
CCN(C)C=Nc1ccc(Oc2ccc(Cl)cn2)cc1C [Example 5] | 1.58
CCN(C)C=Nc1cc(C)c(Oc2ccc(C(F)(F)F)c(Cl)n2)cc1C [Example 6] | 2.36
Cc1cc(Oc2cc(C(F)(F)F)cc(Cl)n2)ccc1N=CN(C)C(C)C [Example 7] | 2.22
CCN(C)C=Nc1cc(C)c(Oc2ccc(Cl)cn2)cc1C [Example 8] | 1.84
CCN(C)C=Nc1ccc(Oc2ccc(C(F)(F)F)cn2)cc1C [Example 9] | 1.79
CCN(C)C=Nc1cc(C)c(Oc2ccc(C(F)(F)F)cn2)cc1C [Example 10] | 1.86
CCN(C)C=Nc1cc(C)c(Oc2ccc(C(F)(F)F)c(Cl)n2)cc1C [Example 11] | 2.11
Cc1cc(Oc2cc(C(F)(F)F)cc(Cl)n2)c(C)cc1N=CN(C)C(C)C [Example 12] | 2.52
Cc1cc(Oc2ccc(C(F)(F)F)c(Cl)n2)c(C)cc1N=CN(C)C(C)C [Example 13] | 2.51
CCN(C)C=Nc1cc(C)c(Oc2ccc(I)cn2)cc1C [Example 14] | 2.10
CCN(C)C=Nc1cc(C)c(Oc2cc(-c3ccccc3Cl)c(C)cn2)cc1C [Example 15] | 2.58
CCN(C)C=Nc1ccc(Oc2cc(-c3ccccc3Cl)c(C)cn2)cc1C [Example 16] | 2.39
CCN(C)C=Nc1ccc(Oc2ccc(I)cn2)cc1C [Example 17] | 1.87
CCN(C=Nc1cc(C)c(Oc2cc(C(F)(F)F)cc(Cl)n2)cc1C)CC [Example 18] | 2.59
CCCN(C)C=Nc1cc(C)c(Oc2cc(C(F)(F)F)cc(Cl)n2)cc1C [Example 19] | 2.66
Cc1cc(Oc2cc(C(F)(F)F)cc(Cl)n2)c(C(C)(C)C)cc1N=CN(C)C(C)C [Example 20] | 3.17
Cc1cc(Oc2cc(C(F)(F)F)cc(Cl)n2)c(C(C)C)cc1N=CN(C)C(C)C [Example 21] | 2.97
CCN(C)C=Nc1cc(C(C)(C)C)c(Oc2cc(C(F)(F)F)cc(Cl)n2)cc1C [Example 22] | 2.83
CCN(C)C=Nc1cc(C)c(Oc2cc(Cl)cc(C)n2)cc1C [Example 23] | 1.58
CCN(C)C=Nc1cc(C(C)C)c(Oc2cc(C(F)(F)F)cc(Cl)n2)cc1C [Example 24] | 2.87
CCN(C)C=Nc1cc(C)c(Oc2cc(C(F)(F)F)cc(C)n2)cc1C [Example 25] | 2.19
CCN(C)C=Nc1cc(C)c(Oc2cccc(Cl)n2)cc1C [Example 26] | 1.78
CCN(C)C=Nc1cc(C)c(Oc2cc(C(F)(F)F)ccn2)cc1C [Example 27] | 1.96

Structure (SMILES) | logPa
CCN(C)C=Nc1cc(C)c(Oc2ncc(Cl)cc2Cl)cc1C [Example 28] | 2.00
CCCN(C)C=Nc1cc(C)c(Oc2ncc(Cl)cc2Cl)cc1C [Example 29] | 2.22
CCCc1cc(CCC)nc(Oc2cc(C)c(N=CN(C)CC)cc2C)c1 [Example 30] | 2.97
CCN(C)C=Nc1cc(C)c(Oc2cc(C#N)ccn2)cc1C [Example 31] | 1.42
Cc1cc(Oc2ncc(Cl)cc2Cl)c(C)cc1N=CN(C)C(C)C [Example 32] | 2.24
CCN(C)C=Nc1cc(C)c(Oc2cc(Cl)cc(C(C)C)n2)cc1C [Example 33] | 2.18
Cc1cc(Oc2cc(Cl)cc(C(C)C)n2)c(C)cc1N=CN(C)C(C)C [Example 34] | 2.34
CCN(C)C=Nc1cc(C)c(Oc2ccc(C#N)cn2)cc1C [Example 35] | 1.47
CCCN(C)C=Nc1cc(C)c(Oc2ccc(C#N)cn2)cc1C [Example 36] | 1.63
C=CCN(C)C=Nc1cc(C)c(Oc2ccc(C#N)cn2)cc1C [Example 37] | 1.56
Cc1cc(Oc2ccc(C#N)cn2)c(C)cc1N=CN1CCCCC1 [Example 38] | 1.58
Cc1cc(Oc2ccc(C#N)cn2)c(C)cc1N=CN1CCCC1 [Example 39] | 1.46
CCc1cc(Cl)cc(Oc2cc(C)c(N=CN3CCCCC3)cc2C)n1 [Example 40] | 2.04
CCc1cc(Cl)cc(Oc2cc(C)c(N=CN3CCCC3)cc2C)n1 [Example 41] | 1.95
CCCN(C)C=Nc1cc(C)c(Oc2cc(Cl)cc(CC)n2)cc1C [Example 42] | 2.00
Cc1cc(Oc2ncc(C(F)(F)F)cc2Cl)c(C)cc1N=CN(C)C(C)C [Example 43] | 2.29
CCN(C)C=Nc1cc(C)c(Oc2ncc(C(F)(F)F)cc2Cl)cc1C [Example 44] | 2.15
CCN(C)C=Nc1cc(C)c(Oc2cccc(-c3ccc(Cl)cc3)n2)cc1C [Example 45] | 2.66
Cc1cc(Oc2cccc(Cl)n2)c(C)cc1N=CN1CCCC1 [Example 46] | 1.81
Cc1cc(Oc2cccc(Cl)n2)c(C)cc1N=CN1CCCCC1 [Example 47] | 1.96
CCc1cc(Cl)cc(Oc2cc(C)c(N=CN(C)CC)cc2C)n1 [Example 48] | 1.98
CCN(C)C=Nc1cc(C)c(Oc2ccc(C)c(Cl)n2)cc1C [Example 49] | 2.01
Cc1cc(Oc2ccc(C)c(Cl)n2)c(C)cc1N=CN1CCCCC1 [Example 50] | 2.21
CCCN(C)C=Nc1cc(C)c(Oc2ccc(C)c(Cl)n2)cc1C [Example 51] | 2.17
Cc1cc(Oc2ccc(C)c(Cl)n2)c(C)cc1N=CN1CCCC1 [Example 52] | 2.05
Cc1cc(Oc2cc(Cl)cc(C(C)C)n2)c(C)cc1N=CN1CCCCC1 [Example 53] | 2.34

Structure (SMILES) | logPa
CCCN(C)C=Nc1cc(C)c(Oc2cc(Cl)cc(C(C)C)n2)cc1C [Example 54] | 2.35
Cc1cc(Oc2cc(Cl)cc(C(C)C)n2)c(C)cc1N=CN1CCCC1 [Example 55] | 2.22
CCN(C)C=Nc1cc(C)c(Oc2cc(Cl)ccn2)cc1C [Example 56] | 1.75
CCN(C)C=Nc1cc(C)c(Oc2cccc(Br)n2)cc1C [Example 57] | 1.89
CCCN(C)C=Nc1cc(C)c(Oc2cccc(Br)n2)cc1C [Example 58] | 2.04
Cc1cc(Oc2cccc(Br)n2)c(C)cc1N=CN1CCCCC1 [Example 59] | 2.06
Cc1cc(Oc2cccc(Br)n2)c(C)cc1N=CN1CCCC1 [Example 60] | 1.90
CCN(C)C=Nc1cc(C)c(Oc2cccc(C(F)(F)F)n2)cc1C [Example 61] | 1.98
CCN(C)C=Nc1cc(C)c(Oc2cc(C(F)(F)F)c(F)c(F)n2)cc1C [Example 62] | 2.31
CCCN(C)C=Nc1cc(C)c(Oc2cc(C(F)(F)F)c(F)c(F)n2)cc1C [Example 63] | 2.48
CCN(C)C=Nc1cc(C)c(Oc2ccc(C)nc2)cc1C [Example 65] | 0.60
CCN(C)C=Nc1cc(C)c(Oc2cccnc2C)cc1C [Example 66] | 1.56
CCN(C)C=Nc1cc(C)c(Oc2cncc(Cl)c2)cc1C [Example 67] | 1.82
CCN(C)C=Nc1cc(C)c(Oc2ccnc(Cl)c2)cc1C [Example 69] | 1.45
Cc1cc(Oc2ccnc(Cl)c2)c(C)cc1N=CN1CCCCC1 [Example 70] | 1.66
Cc1cc(Oc2ccnc(Cl)c2)c(C)cc1N=CN1CCCC1 [Example 71] | 1.52
CCCN(C)C=Nc1cc(C)c(Oc2ccnc(Cl)c2)cc1C [Example 72] | 1.56
C=CCN(C)C=Nc1cc(C)c(Oc2ccnc(CC)c2Cl)cc1C [Example 73] | 1.51
CCCN(C)C=Nc1cc(C)c(Oc2ccnc(CC)c2Cl)cc1C [Example 74] | 1.59
CCc1nccc(Oc2cc(C)c(N=CN3CCCCC3)cc2C)c1Cl [Example 75] | 1.56
CCc1nccc(Oc2cc(C)c(N=CN3CCCC3)cc2C)c1Cl [Example 76] | 1.43
CCN(C)C=Nc1cc(C)c(Oc2ccnc(C(F)(F)F)c2)cc1C [Example 77] | 1.75
CCCN(C)C=Nc1cc(C)c(Oc2ccnc(C(F)(F)F)c2)cc1C [Example 78] | 1.75
Cc1cc(Oc2ccnc(C(F)(F)F)c2)c(C)cc1N=CN1CCCCC1 [Example 79] | 1.78
Cc1cc(Oc2ccnc(C(F)(F)F)c2)c(C)cc1N=CN1CCCC1 [Example 80] | 1.69
C=CCN(C)C=Nc1cc(C)c(Oc2ccnc(Cl)c2)cc1C [Example 81] | 1.74

same assay, conditions: pH 2.3, C 18

Structure (SMILES) | log P (pH 2.3)
CCc1nccc(Oc2cc(C)c(N)cc2C)c1Cl [4-(2-Ethyl-3-chloropyridyl-4-oxy)-2,5-xylidine] | 1.66
Cc1cc([N+](=O)[O-])c(C)cc1Oc1cncc(Cl)c1 [4-(3-chlorpyridyl-5-oxy)-2,5-dimethylnitrobenzene] | 3.61
Cc1cc(Oc2cncc(Cl)c2)c(C)cc1N [4-(3-chlorpyridyl-5-oxy)-2,5-xylidine] | 1.83
CCN(C)C=Nc1cc(C)c(Oc2cc(C(F)(F)F)cc(Cl)n2)cc1C [Example 1, N-Ethyl-N-methyl-N′-[4-(2-chlor-4-trifluormethylpyridyl-6-oxy)-2,5-xylyl]form-amidine] | 2.39
CCN(C)C=Nc1cc(C)c(Oc2cncc(Cl)c2)cc1C [Example 64, N-Ethyl-N-methyl-N′-[4-(3-chlorpyridyl-5-oxy)-2,5-xylyl]formamidine] | 1.70
CCc1nccc(Oc2cc(C)c(N=CN(C)CC)cc2C)c1Cl [Example 68, N-Ethyl-N-methyl-N′-[4-(2-ethyl-3-chloropyridyl-4-oxy)-2,5-xylyl]form-amidine] | 1.47
